Earlier results as cited in patent US20250222021A1, “METHOD OF TREATING ACID-BASE DISORDERS” (Renosis, Inc., priority 2017, published 2025).

System: adult patients with CKD and serum bicarbonate 16 to 20 mmol/L
Conditions: 2 years

Question: What does the source list for `O=C([O-])O.[Na+]` [sodium bicarbonate]?
Answer: Patients who developed ESRD: 6.5%; Patients with rapid progression (rapid decline of CrCl >3 ml/min per 1.73 m^2/yr): 9%; Relative risk of ESRD versus control: 0.13; Relative risk of rapid progression versus control: 0.15; Decrease in creatinine clearance (CrCl) (average 1.82 g/day bicarbonate): 1.88 ml/min per 1.73 m^2
